Where two headings read alike, the source gives them in different places.
Legend:
Pim-1 = Pim-1 (Homo sapiens (Human), UniProt P11309); assay: Pim enzyme assay (HTRF, phosphorylation of biotinylated-BAD (S112) peptide), Pim-1; format: biochemical; conditions: full length recombinant Pim-1, biotinylated-BAD (S112) peptide, HTRF
In short: (§1)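 Full-length human Pim-1 or Pim-2 with an N-terminal His6 tag, expressed in Sf9 or E. coli and purified as monomer. HTRF read-out: biotinylated BAD (S112) peptide phosphorylation detected with streptavidin-APC plus Eu-anti-phospho-BAD(S112) antibody, excitation 337 nm, emission 665 nm.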

Pim-2 = Pim-2 (Homo sapiens (Human), UniProt Q9P1W9); assay: Pim enzyme assay (HTRF, phosphorylation of biotinylated-BAD (S112) peptide), Pim-2; format: biochemical
In short: as §1

[1] = system: KMS-12-BM myeloma cell line; assay: Pim cell assay: phospho-BAD (S112) and total BAD in KMS-12-BM cells; format: cell-based; conditions: Homo sapiens, KMS-12-BM, 1 hour and 50 minutes incubation
In short: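 KMS-12-BM myeloma cells, after overnight culture, got a 10-point compound dose series (0.3% DMSO) for 1 h 50 min at 37 °C. Lysates measured for phospho-BAD (S112) and total BAD by MSD immunoassay; % phosphoprotein = 2×phospho/(phospho+total)×100.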

[2] = full length recombinant Pim-2, biotinylated-BAD (S112) peptide, HTRF, read-out: Pim2_IC50
[3] = 96-well, read-out: Pim-1 IC50 IP
[4] = full length recombinant Pim-2, biotinylated-BAD (S112) peptide, HTRF, 96-well, read-out: Pim-2 IC50 IP

Pim-1, sequence (P11309 whole entry): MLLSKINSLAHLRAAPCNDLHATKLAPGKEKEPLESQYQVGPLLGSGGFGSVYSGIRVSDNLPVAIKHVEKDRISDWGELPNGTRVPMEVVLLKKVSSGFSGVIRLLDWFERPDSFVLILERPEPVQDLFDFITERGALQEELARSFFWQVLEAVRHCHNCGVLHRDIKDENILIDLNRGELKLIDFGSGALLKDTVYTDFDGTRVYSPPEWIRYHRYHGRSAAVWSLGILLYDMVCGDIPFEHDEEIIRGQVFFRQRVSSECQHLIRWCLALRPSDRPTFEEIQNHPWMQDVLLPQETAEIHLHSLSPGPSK
Pim-2, sequence (Q9P1W9 whole entry): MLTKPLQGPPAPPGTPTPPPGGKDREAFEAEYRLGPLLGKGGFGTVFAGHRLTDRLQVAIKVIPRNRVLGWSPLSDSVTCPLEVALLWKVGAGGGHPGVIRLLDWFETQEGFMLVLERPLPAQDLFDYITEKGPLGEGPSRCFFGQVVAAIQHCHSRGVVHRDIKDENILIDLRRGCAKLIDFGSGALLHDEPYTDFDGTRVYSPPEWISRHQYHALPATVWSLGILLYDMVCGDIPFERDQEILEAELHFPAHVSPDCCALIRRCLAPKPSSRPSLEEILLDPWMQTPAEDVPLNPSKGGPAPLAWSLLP

| Compound | IC50 (Pim-1; read-out: Pim_1_IC50) [nM] | IC50 (Pim-2; [2]) [nM] | IC50 ([1]; read-out: KMS12_Cell_IC50) [nM] | IC50 (Pim-1; [3]) [nM] | IC50 (Pim-2; [4]) [nM] | IC50 ([1]; read-out: KMS-12-BM IC50 IP) [nM] | IC50 (Pim-2; read-out: Pim-2 IC50 IP) [nM] |
| --- | --- | --- | --- | --- | --- | --- | --- |
| C[C@H]1CN(c2ccncc2Nc2ncc3ccc(-c4ccc(S(C)(=O)=O)cc4F)nn23)C[C@@H](N)[C@@H]1O [Example 23, (3R,4R,5S)-3-amino-1-(3-((2-(2-fluoro-4-(methylsulfonyl)phenyl)imidazo[1,5-b]pyridazin-7-yl)amino)-4-pyridinyl)-5-methyl-4-piperidinol] | 0.1 | 0.5 | 1400 |  |  |  |  |
| Nc1cccc(-c2ccncc2Nc2ncc3ccc(-c4c(F)cccc4F)nn23)c1 [Example 27, N-(4-(3-aminophenyl)-3-pyridinyl)-2-(2,6-difluorophenyl)imidazo[1,5-b]pyridazin-7-amine] | 9 | 121 | > 1000 |  |  |  |  |
| Nc1cc(-c2ccncc2Nc2ncc3ccc(-c4c(F)cccc4F)nn23)ccn1 [Example 30, N3′-(2-(2,6-difluorophenyl)imidazo[1,5-b]pyridazin-7-yl)-4,4′-bipyridine-2,3′-diamine] | 7 | 185 | 21500 |  |  |  |  |
| N[C@H]1CCCN(c2ncncc2Nc2ncc3ccc(-c4c(F)cccc4F)nn23)C1 [Example 36, (S)-N-(4-((3S)-3-amino-1-piperidinyl)-5-pyrimidinyl)-2-(2,6-difluorophenyl)imidazo[1,5-b]pyridazin-7-amine] |  |  |  | 19.2 | 110 | > 31600 |  |
| C[C@@H]1CN(c2ccncc2Nc2ncc3ccc(-c4c(F)cccc4F)nn23)C[C@@H](N)[C@H]1O [Example 41, (3R,4S,5R)-3-amino-1-(3-((2-(2,6-difluorophenyl)imidazo[1,5-b]pyridazin-7-yl)amino)-4-pyridinyl)-5-methyl-4-piperidinol] |  |  |  | 0.1 | 0.5 | 148 |  |
| Cc1cc(N)cc(-c2ccncc2Nc2ncc3ccc(-c4c(F)cccc4F)nn23)c1 [Example 42, N-(4-(3-amino-5-methylphenyl)-3-pyridinyl)-2-(2,6-difluorophenyl)imidazo[1,5-b]pyridazin-7-amine] |  |  |  | 8.6 | 34.4 | 9860 |  |
| N[C@H]1C[C@@H](F)CN(c2ccncc2Nc2ncc3ccc(-c4c(F)cccc4F)nn23)C1 [Example 48, N-(4-((3S,5R)-3-amino-5-fluoropiperidin-1-yl)pyridin-3-yl)-2-(2,6-difluorophenyl)imidazo[1,5-b]pyridazin-7-amine tris(2,2,2-trifluoroacetate)] |  |  |  | 0.8 | 3.2 | 983 |  |
| N[C@H]1C[C@@H](F)CN(c2ccncc2Nc2ncc3ccc(-c4ncccc4F)nn23)C1 [Example 53, N-(4-((3S,5R)-3-amino-5-fluoro-1-piperidinyl)-3-pyridinyl)-2-(3-fluoro-2-pyridinyl)imidazo[1,5-b]pyridazin-7-amine] |  |  |  | 3.4 | 10.9 | 1200 |  |
| C[C@@H]1C[C@H](N)CN(c2ccncc2Nc2ncc3ccc(-c4nccs4)nn23)C1 [Example 62, N-(4-((3S,5R)-3-amino-5-methylpiperidin-1-yl)pyridin-3-yl)-2-(thiazol-2-yl)imidazo[1,5-b]pyridazin-7-amine bis(2,2,2-trifluoroacetate)] |  |  |  | 0.3 |  | 183 | 0.4 |
| N[C@H]1CCCN(c2ccncc2Nc2ncc3ccc(-c4ccccn4)nn23)C1 [Example 64, (S)-N-(4-(3-aminopiperidin-1-yl)pyridin-3-yl)-2-(pyridin-2-yl)imidazo[1,5-b]pyridazin-7-amine] |  |  |  | 1.5 | 6.4 | 1760 |  |
| C[C@H]1CN(c2ccncc2Nc2ncc3ccc(-c4ncccc4F)nn23)C[C@@H](N)[C@@H]1O [Example 66, (3R,4R,5S)-3-amino-1-(3-((2-(3-fluoropyridin-2-yl)imidazo[1,5-b]pyridazin-7-yl)amino)pyridin-4-yl)-5-methylpiperidin-4-ol] |  |  |  | 0.3 | 1.3 | 115 |  |
| C[C@@H]1C[C@H](N)CN(c2ccncc2Nc2ncc3ccc(-c4cc(C(=O)NC5CC5)ccc4F)nn23)C1 [Example 72, 3-(7-((4-((3S,5R)-3-amino-5-methyl-1-piperidinyl)-3-pyridinyl)amino)imidazo[1,5-b]pyridazin-2-yl)-N-cyclopropyl-4-fluorobenzamide] |  |  |  | 0.1 | 0.1 | 86.4 |  |
| N[C@H]1CCCN(c2ccccc2Nc2ncc3ccc(-c4c(F)cccc4F)nn23)C1 [Example 73, (S)-N-(2-(3-aminopiperidin-1-yl)phenyl)-2-(2,6-difluorophenyl)imidazo[1,5-b]pyridazin-7-amine] |  |  |  | 2.2 | 6.5 | 3440 |  |
| N[C@H]1CCCN(c2ccncc2Nc2ncc3ccc(-c4cc(C(=O)NC5CC5)ccc4F)nn23)C1 [Example 74, 3-(7-((4-((3S)-3-amino-1-piperidinyl)-3-pyridinyl)amino)imidazo[1,5-b]pyridazin-2-yl)-N-cyclopropyl-4-fluorobenzamide] |  |  |  | 0.2 | 0.5 | 185 |  |
| N[C@H]1CCCN(c2ccncc2Nc2ncc3ccc(-c4ncccc4Cl)nn23)C1 [Example 78, (S)-N-(4-(3-aminopiperidin-1-yl)pyridin-3-yl)-2-(3-chloropyridin-2-yl)imidazo[1,5-b]pyridazin-7-amine] |  |  |  | 0.9 | 2.6 | 620 |  |
| C[C@@H]1C[C@H](N)CN(c2ccncc2Nc2ncc3ccc(-c4ncccc4Cl)nn23)C1 [Example 79] |  |  |  | 0.2 | 0.5 | 132 |  |
| CN(C)C(=O)c1ccc(F)c(-c2ccc3cnc(Nc4cnccc4N4CCC[C@H](N)C4)n3n2)c1 [Example 89, (S)-3-(7-((4-(3-aminopiperidin-1-yl)pyridin-3-yl)amino)imidazo[1,5-b]pyridazin-2-yl)-4-fluoro-N,N-dimethylbenzamide tetra(2,2,2-trifluoroacetate)] |  |  |  | 3.5 | 5.3 | 1350 |  |
| C[C@@H]1C[C@H](N)CN(c2ccncc2Nc2nnc3ccc(-c4c(F)cccc4F)nn23)C1 [Example 90, N-(4-((3S,5R)-3-amino-5-methylpiperidin-1-yl)pyridin-3-yl)-6-(2,6-difluorophenyl)-[1,2,4]triazolo[4,3-b]pyridazin-3-amine bis(2,2,2-trifluoroacetate)] |  |  |  | 1 |  | 509 | 3.9 |
| N[C@H]1CCCN(c2ccncc2Nc2nnc3ccc(-c4ncccc4F)nn23)C1 [Example 91, N-(4-((3S)-3-amino-1-piperidinyl)-3-pyridinyl)-6-(3-fluoro-2-pyridinyl)[1,2,4]triazolo[4,3-b]pyridazin-3-amine bis(2,2,2-trifluoroacetate)] |  |  |  | 5.6 |  | 11300 | 30.5 |
| C[C@@H]1C[C@H](N)CN(c2ccncc2Nc2nnc3ccc(-c4ncccc4F)nn23)C1 [Example 92, N-(4-((3S,5R)-3-amino-5-methyl-1-piperidinyl)-3-pyridinyl)-6-(3-fluoro-2-pyridinyl)[1,2,4]triazolo[4,3-b]pyridazin-3-amine] |  |  |  | 1.6 | 10.6 | 2200 |  |

From patent publication US9187486B2 (AMGEN INC., priority 2011, dated 2015)
